Experimental data reported in PMC9369610, “Pro-Apoptotic and Pro-Autophagic Properties of Cardenolides from Aerial Parts of Pergularia tomentosa” (Molecules, 2022).

Legend:
[1] = tested on: Caco-2 cells; assay: MTT cell viability assay, IC50 in Caco-2 cells; format: cell-based; conditions: Homo sapiens, 24 h, SE less than 10% of value
Description: The human liver hepatocellular carcinoma cell line, HepG2, and the human adenocarcinoma of colon cell line, Caco-2, were cultured in Eagle’s Minimum Essential medium supplemented with 1% (v/v) non-essential amino acids, 0.2 mM L-glutamine, 50 units/mL penicillin, 50 μg/mL streptomycin and 10% (v/v) or 20% (v/v) fetal bovine serum (Sigma Aldrich, Milan, Italy) for HepG2 or Caco-2, respectively. The human embryonal lung fibroblast cell line, MRC5, was cultured in Dulbecco’s Modified Eagle medium (Sigma Aldrich, Milan, Italy) supplemented with 10% (v/v) fetal bovine serum, 0.2 mM L-glutamine, 50 units/mL penicillin and 50 μg/mL streptomycin. HUVEC cells were cultured in endothelial growth medium-2, supplemented with fetal bovine serum (2%), VEGF (0.1%), rH FGF-B (0.4%), rH EGF (0.1%), GA-1000 (0.1%), hydrocortisone (0.04%), R3-IGF-1 (0.1%), heparin (0.1%) and ascorbic acid (0.1%). Cells were maintained at 37 °C in a 5% CO2, 95% air-humidified atmosphere and passaged twice a week. Cell lines were obtained from Interlab Cell Line Collection, Istituto Nazionale per la Ricerca sul Cancro, Genoa, Italy. HUVEC were obtained from Lonza (Milan, Italy).
An MTT assay was used to analyse cell viability. Cells were seeded in 96 wells at the density of 2 × 10^4/cm^2 and, after 24 h, they were treated with P. tomentosa compounds or with the vehicle (DMSO). After a further 24 h of treatment, 0.5 mg/mL of MTT was added to the cell medium and incubated for 1.5 h at 37 °C. The resulting formazan crystals were dissolved in 100 μL of DMSO and absorbances were measured at 595 nm and 655 nm. The background signals at 655 nm were subtracted from 595 nm signals, and data were expressed as a percent of cell viability. The concentration of each compound that is required for 50% inhibition in vitro (IC50) was calculated as described in Husseini et al.. IC50 values were obtained for Caco-2, HepG2 and MRC5 cells by performing MTT assays with concentrations ranging from 0.01 μg/mL to 5 μg/mL.

[2] = tested on: HepG2 cells; assay: Transwell migration assay; format: cell-based, human; conditions: HepG2, 1 μM, 18 h
Description: Transwell filters (coated with collagen) in serum-free media containing 0.1% of BSA, with a PET membrane with 8 μm pores (BD Biosciences, Milan, Italy), were rehydrated for 2 h at 37 °C. HepG2 were seeded in the upper chambers at a density of 75 × 10^3 cells in MEM with 0.1% BSA and treated with or without 1 µM of Pergularia compounds. MEM−0.1%BSA, supplemented with 10% FBS, was added to the lower chamber as chemoattractant. Control wells without 10% FBS were included to assess random migration. After incubation at 37 °C in 5% CO2 for 18 h, the migrated cells were fixed with 4% paraformaldehyde for 5 min, permeabilised with methanol for 20 min and stained with crystal violet 0.5% for 15 min at room temperature. The cells on the lower side of the filter were allowed to dry before counting. Eight separate bright-field images were randomly acquired of each filter using an Olympus CKX41 Image Analyzer. The cells in each image were counted and analysed compared to control-transfected cells.

[3] = tested on: caspase-3 in HepG2 cells; assay: Western blot of cleaved caspase-3; format: cell-based, human; conditions: HepG2, 2 μM, 7 h, Western blot densitometry
Description: To analyse the protein levels of p53, caspase-3, GRP78, LC3 and p62, HepG2 cells were treated with P. tomentosa compounds (1 or 2 μM) or with DMSO for the indicated times; then, Western blot analyses were performed. Briefly, cells were lysed in RIPA buffer (20 mM Tris-HCl, pH 7.5, 150 mM NaCl, 1 mM EDTA, 1 mM dithiothreitol, 0.1% sodium dodecyl sulphate, 1% triton X-100, 1 mM orthovanadate, and a cocktail of inhibitors (Sigma-Aldrich, Milan, Italy)). After separation on a sodium dodecyl sulphate-polyacrylamide gel electrophoresis and transfer to a poly-vinylidene fluoride membrane (Euroclone, Milan, Italy), the following primary antibodies were used, at a dilution of 1:1000 in tris-buffered saline containing 1% non-fat dry milk, overnight at 4 °C: mouse anti-p53 antibody, mouse anti-MAP LC3 β antibody, mouse anti-p62 antibody (DBA, Milan, Italy), mouse anti-GRP78 antibody, and mouse anti-caspase 3 antibody (Thermo Fisher Scientific, Milan, Italy). For normalisation, a mouse anti-GAPDH antibody (Microtech, Naples, Italy) was used.

[4] = tested on: HepG2 cells; assay: TUNEL assay; format: cell-based, human; conditions: HepG2, 1 μM, 24 h
Description: Microscopic evaluation of apoptosis was performed by a TUNEL assay, using a commercial kit (Fragment End Labelling (FragEL™), […]) DNA Fragmentation Detection Kit, Sigma-Aldrich, Milan, Italy) according to the manufacturer-provided protocol, with some modifications. Briefly, cells were seeded on glass cover slips placed in 24-well plates at a density of 3.5 × 10^3/cm^2 and, after 48 h, they were treated with 1 μΜ of each compound for a further 24 h. Cells were fixed in 3% paraformaldehyde for 10 min, permeabilised in 0.2% Triton X-100 for 5 min and treated with HCl 1.5 N for 8 min. Finally, cover slips were equilibrated in equilibration buffer (10 min) and incubated with label mix containing the TdT enzyme for 1 h at 37 °C, then mounted with mounting media. Microscope observations were performed by the AxioSkop 40 fluorescent microscope. Images were acquired with Axiocam MRc5 (Carl Zeiss MicroImaging, Inc., Jena, Germany).

C[C@@H]1C[C@@H](O)[C@]2(O)O[C@@H]3C[C@@]4(C=O)[C@@H](CC[C@@H]5[C@@H]4CC[C@]4(C)[C@@H](C6=CC(=O)OC6)CC[C@]54O)C[C@H]3O[C@@H]2O1 [Compound 5, calactin]
IC50 [1]: 650 nM
effect on transwell migration [2]: most potent
cleaved caspase-3 (caspase-3 activation) [3]: most active
apoptotic nuclei (TUNEL) [4]: occurrence of apoptotic nuclei
